Results: patent US10501518B2 (priority 2013, dated 2019)
Starred links: 1 amine or outer side, 2 acyl side, 3 side chain; linkers in the order of their positions; H or OH if unused. Non-standard residues stand in square brackets, D forms with d. Residues, ends and D or L forms follow the SMILES beside them. *: point of attachment. NH(1S,2S-2-CONH2-cPent) = NC(=O)[C@H]1CCC[C@@H]1N*; X12 = O=C([C@H]1CCC[C@@H]1N[*:1])[*:2]; X13 = O=C([C@H]1CNC[C@@H]1N[*:1])[*:2]; ACPC(1S,2S) = N[C@H]1CCC[C@@H]1C(=O)*; β3hE = N[C@@H](CCC(=O)O)CC(=O)O; β3hD = NC(CC(=O)O)CC(=O)O

How the values were obtained:
[1] = target: T1, R^0 form of rat PTHR-1 (Rattus norvegicus, UniProt P25961); assay: Radio-ligand competition binding to R^0 form of rat PTHR-1; conditions: Table 5; rat PTHR-1; mean ± SEM; read-out: R^0 -log (IC50) (converted)
T1 construct: expressed in transfected cells; host or cells: COS-7
T1 sequence (P25961 27-591): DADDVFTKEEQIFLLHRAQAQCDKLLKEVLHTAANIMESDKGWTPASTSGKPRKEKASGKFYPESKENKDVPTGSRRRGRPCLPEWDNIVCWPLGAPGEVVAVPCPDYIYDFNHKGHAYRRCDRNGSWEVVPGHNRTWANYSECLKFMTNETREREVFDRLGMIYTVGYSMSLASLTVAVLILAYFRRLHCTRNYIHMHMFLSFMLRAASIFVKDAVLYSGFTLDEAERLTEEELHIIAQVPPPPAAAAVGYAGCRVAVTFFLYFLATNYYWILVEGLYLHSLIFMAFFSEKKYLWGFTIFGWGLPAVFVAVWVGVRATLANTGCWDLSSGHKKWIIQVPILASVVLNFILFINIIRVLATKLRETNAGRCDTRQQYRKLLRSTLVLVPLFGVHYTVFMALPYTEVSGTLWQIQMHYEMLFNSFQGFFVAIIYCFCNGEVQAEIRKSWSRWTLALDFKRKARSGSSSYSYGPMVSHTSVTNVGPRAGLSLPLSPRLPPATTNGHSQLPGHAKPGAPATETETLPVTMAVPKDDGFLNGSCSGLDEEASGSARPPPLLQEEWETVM
Description: (§1) Data are means (±SEM) of n≥4 experiments, each performed in duplicate.

[2] = target: T2, WT human PTHR-1 (Homo sapiens, UniProt Q03431); assay: cAMP GloSensor dose-response in GP-2.3 cells expressing human PTHR-1; type: cell-based; conditions: for EC50 / cAMP (hPTHR-1) Max: Table 1; for EC50 / Max: GP-2.3 cells; for EC50: read-out: cAMP (hPTHR-1) EC50; for cAMP (hPTHR-1) Max: luminescence counts per second relative to PTH(1-34); for cAMP (hPTHR-1) Max / Max: 12-16 minutes after ligand addition; for Max: Table 6, mean ± SEM; for agonist activity at hPTHR-1 (cAMP response), in words: maximum cAMP response compared with PTH(1-34)
T2 construct: bioactivity of the resulting compound in full-length hPTHR-1 and a truncated version; expressed in transfected cells
T2 sequence (Q03431 27-593): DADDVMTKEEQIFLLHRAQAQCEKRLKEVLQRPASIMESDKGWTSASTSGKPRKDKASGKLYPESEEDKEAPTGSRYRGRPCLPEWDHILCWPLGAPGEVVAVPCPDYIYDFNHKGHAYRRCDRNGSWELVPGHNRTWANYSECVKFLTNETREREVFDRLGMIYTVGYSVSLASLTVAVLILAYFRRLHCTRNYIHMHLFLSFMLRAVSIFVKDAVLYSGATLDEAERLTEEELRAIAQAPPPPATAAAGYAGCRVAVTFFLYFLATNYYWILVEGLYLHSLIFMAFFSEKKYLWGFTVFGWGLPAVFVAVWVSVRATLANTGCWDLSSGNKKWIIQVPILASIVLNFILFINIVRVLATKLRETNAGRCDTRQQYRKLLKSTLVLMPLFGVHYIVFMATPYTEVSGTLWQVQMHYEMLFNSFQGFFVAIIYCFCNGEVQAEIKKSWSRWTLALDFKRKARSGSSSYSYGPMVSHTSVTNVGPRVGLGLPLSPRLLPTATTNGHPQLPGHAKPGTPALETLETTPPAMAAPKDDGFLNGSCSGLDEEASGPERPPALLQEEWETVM
Protocol: FIGS. 8A, 8B, and 8C constitute a series of graphs depicting cAMP responses in GP-2.3 cells expressing wild-type human parathyroid hormone receptor 1 (PTHR-1-WT). […] Data are means (±SEM) of n>4 experiments, each performed in duplicate.
(§2) For cAMP dose-response assays, monolayers of confluent HEK 293 cells were pre-incubated with buffer containing d-luciferin (0.5 mM) in 96 well plates at room temperature until a stable baseline level of luminescence was established (30 min). Varying concentrations of agonist were then added, and the time course of luminescence response was recorded using a Perkin Elmer plate reader following α/β-peptide addition.

[3] = target: T3, WT rat PTHR-1 (Rattus norvegicus, UniProt P25961); assay: cAMP GloSensor dose-response in GR-35 cells expressing rat PTHR-1; type: cell-based; conditions: Table 7; GR-35 cells, 12-16 minutes after ligand addition; mean ± SEM
T3 construct: expressed in transfected cells
T3 sequence (P25961 27-591): T1 sequence (P25961 27-591)
Protocol: FIGS. 9A, 9B, and 9C constitute a series of graphs depicting cAMP responses in GR-35 cells expressing rat PTHR-1-WT. […] Data are means (±SEM) of n>4 experiments, each performed in duplicate.
as §2

[4] = target: T4, R^0 form of human PTHR-1 (Homo sapiens, UniProt Q03431); assay: Radio-ligand competition binding to R^0 form of human PTHR-1 (COS-7 membranes, 125I-PTH(1-34) tracer, GTPγS); conditions: Table 1; COS-7 membranes, 125I-PTH(1-34) tracer, GTPγS; read-out: R^0 IC50, nM, Binding (hPTHR-1)
T4 construct: expressed in transfected cells; host or cells: COS-7
T4 sequence (Q03431 27-593): T2 sequence (Q03431 27-593)
Description: as §1

[5] = target: T5, PTHR (Homo sapiens, UniProt Q03431); assay: cAMP induction potency, N-terminal modifications and cyclic constraints (Tables 9, 10, 13); type: cell-based; conditions: Table 9
T5 construct: expressed in transfected cells
T5 sequence (Q03431 27-593): T2 sequence (Q03431 27-593)

| IC50 [1] [nM] | EC50 [2] [nM] | cAMP (hPTHR-1) Max [2] | agonist activity at hPTHR-1 (cAMP response), in words [2] | IC50 [4] [nM] | Fold PTH [5] | SMILES | Max [2] | Max [3] |
| --- | --- | --- | --- | --- | --- | --- | --- | --- |
| 4.57 | 0.58 | 1.03 | full agonists of hPTHR-1 |  |  | CC[C@H](C)[C@H](NC(=O)[C@H](CCC(=O)O)NC(=O)[C@H](CO)NC(=O)[C@@H](NC(=O)[C@@H](N)CO)C(C)C)C(=O)N[C@@H](CCC(N)=O)C(=O)N[C@@H](CC(C)C)C(=O)N[C@@H](CCSC)C(=O)N[C@@H](Cc1c[nH]cn1)C(=O)N[C@@H](CC(N)=O)C(=O)N[C@@H](CC(C)C)C(=O)NCC(=O)N[C@@H](CCCCN)C(=O)N[C@@H](Cc1c[nH]cn1)C(=O)N[C@@H](CC(C)C)C(=O)N[C@@H](CC(N)=O)C(=O)N[C@@H](CO)C(=O)N[C@@H](CCSC)C(=O)N[C@@H](CCC(=O)O)C(=O)N[C@@H](CCCNC(=N)N)C(=O)N[C@H](C(=O)N[C@@H](CCC(=O)O)C(=O)N[C@@H](Cc1c[nH]c2ccccc12)C(=O)N[C@@H](CC(C)C)C(=O)N[C@@H](CCCNC(=N)N)CC(=O)N[C@@H](CCCCN)C(=O)N[C@@H](CCCCN)C(=O)N[C@@H](CC(C)C)C(=O)N[C@@H](CCC(N)=O)CC(=O)N[C@@H](CC(=O)O)C(=O)N[C@H](C(=O)N[C@@H](Cc1c[nH]cn1)C(=O)N[C@@H](CC(N)=O)CC(=O)N[C@@H](Cc1ccccc1)C(N)=O)C(C)C)C(C)C [C3] | 223 ± 14 luminescence counts per second × 10^−3 | 68 ± 77 luminescence counts per second × 10−3 |
|  | 0.11 | 1.08 | full agonists of hPTHR-1 | 80 |  | CC[C@H](C)[C@H](NC(=O)[C@H](CCC(=O)O)NC(=O)[C@H](CO)NC(=O)[C@@H](NC(=O)[C@@H](N)CO)C(C)C)C(=O)N[C@@H](CCC(N)=O)C(=O)N[C@@H](CC(C)C)C(=O)N[C@@H](CCSC)C(=O)N[C@@H](Cc1c[nH]cn1)C(=O)N[C@@H](CC(N)=O)C(=O)N[C@@H](CC(C)C)C(=O)NCC(=O)N[C@@H](CCCCN)C(=O)N[C@@H](Cc1c[nH]cn1)C(=O)N[C@@H](CC(C)C)C(=O)N[C@@H](CC(N)=O)C(=O)N[C@@H](CO)C(=O)N[C@@H](CCSC)C(=O)N[C@@H](CCC(=O)O)C(=O)N[C@@H](CCCNC(=N)N)C(=O)N[C@H](C(=O)N[C@@H](CCC(=O)O)C(=O)N[C@@H](Cc1c[nH]c2ccccc12)C(=O)N[C@H](CC(=O)N[C@@H](CCCNC(=N)N)C(=O)N[C@@H](CCCCN)C(=O)N[C@@H](CCCCN)C(=O)N[C@H](CC(=O)N[C@@H](CCC(N)=O)C(=O)N[C@@H](CC(=O)O)C(=O)N[C@H](C(=O)N[C@@H](CCC(N)=O)CC(=O)N[C@@H](CC(N)=O)C(=O)N[C@@H](Cc1ccccc1)C(N)=O)C(C)C)CC(C)C)CC(C)C)C(C)C [B3] | 234 ± 16 luminescence counts per second × 10^−3 | 69 ± 78 luminescence counts per second × 10−3 |
|  |  |  |  |  | 7.3 | CC[C@H](C)[C@H](NC(=O)[C@H](CCC(=O)O)NC(=O)[C@H](CO)NC(=O)[C@@H](NC(=O)[C@H]1CCC[C@@H]1N)C(C)C)C(=O)N[C@@H](CCC(N)=O)C(=O)N[C@H]1CCC[C@@H]1C(=O)N[C@@H](CCSC)C(=O)N[C@@H](Cc1c[nH]cn1)C(=O)N[C@@H](CC(N)=O)C(=O)N[C@@H](CC(C)C)C(=O)NCC(=O)N[C@@H](CCCCN)C(=O)N[C@H]1CCC[C@@H]1C(=O)N[C@@H](CC(C)C)C(=O)N[C@@H](CC(N)=O)C(=O)N[C@@H](CO)C(=O)N[C@H]1CCC[C@@H]1C(=O)N[C@@H](CCC(=O)O)C(=O)N[C@@H](CCCNC(=N)N)C(=O)N[C@H](C(=O)N[C@@H](CCC(=O)O)CC(=O)N[C@@H](Cc1c[nH]c2ccccc12)C(=O)N[C@@H](CC(C)C)C(=O)N[C@@H](CCCNC(=N)N)C(=O)N[C@H]1CNC[C@@H]1C(=O)N[C@@H](CCCCN)C(=O)N[C@@H](CC(C)C)C(=O)N[C@@H](CCC(N)=O)C(=O)N[C@@H](CC(=O)O)CC(=O)N[C@H](C(=O)N[C@@H](Cc1c[nH]cn1)C(=O)N[C@@H](CC(N)=O)C(=O)N[C@H]1CCC[C@@H]1C(N)=O)C(C)C)C(C)C [CycD6_ACPC(1,7), XVSEIQXMHNLGKXLNSXERVEWLRZKLQDVHNX-NH2] ({ACPC(1S,2S)}-VSEIQ[X12]MHNLGK[X12]LNS[X12]ERV[β3hE]WLR[X13]KLQ[β3hD]VHN-{NH(1S,2S-2-CONH2-cPent)}; N-terminus assumed) |  |  |
